Results published in publication PMC8519103 (Chemmedchem, 2021).
Values joined by “and” are separate entries in the source; they are usually repeats but may differ in a detail not shown here. Identical values can stand only once.

system: M. bovis BCG; assay: microbe, parasite or virus in culture; type: cell-based, Mycobacterium bovis DSM-43990 (BCGT); settings: not given

Row | Compound | MIC50 relative to KD (MIC50 = x × KD)
1 | C=CC(c1ccc(-c2ccc3c(c2)OCO3)cc1)n1ccnc1 (stereo not drawn) [Compound S5, 1‐(1‐(4‐(benzo[d][1,3]dioxol‐5‐yl)phenyl)allyl)‐1H‐imidazole] | > 2
2 | C=CC(c1ccc(-c2ccc(OC)c(C)c2)cc1)n1ccnc1 (stereo not drawn) [Compound S4, 1‐(1‐(4’‐methoxy‐3’‐methyl‐[1,1’‐biphenyl]‐4‐yl)allyl)‐1H‐imidazole] | > 2
3 | C=CC(c1ccc(-c2ccc3[nH]ccc3c2)cc1)n1ccnc1 (stereo not drawn) [Compound S10, 5‐(4‐(1‐(1H‐imidazol‐1‐yl)allyl)phenyl)‐1H‐indole] | > 2
4 | C=CC(c1ccc(-c2ccc(OC)c(OC)c2)cc1)n1ccnc1 (stereo not drawn) [Compound S3, 1‐(1‐(3’,4’‐dimethoxy‐[1,1’‐biphenyl]‐4‐yl)allyl)‐1H‐imidazole] | > 2
5 | C=CC(c1ccc(-c2ccc3c(c2)OCO3)cc1F)n1ccnc1 (stereo not drawn) [Compound S8] | > 2

same assay, conditions: Mycobacterium tuberculosis variant bovis BCG, BCG, read-out: MIC50

Row | Compound | IC50
6 | Clc1ccc(COC(Cn2ccnc2)c2ccc(Cl)cc2Cl)cc1 (stereo not drawn) [Econazole, reference compound] | 2.6 µg/mL and 12.7 µM
